Experimental data as given in paper PMC6694196, “Intrinsic tryptophan fluorescence spectroscopy reliably determines galectin-ligand interactions” (Scientific Reports, 2019).
Several values for one entry are separate records, joined by “and”; a condition that tells them apart may be missing. Equal entries are not always repeated. Entries after “also recorded” stand apart in the source; their conditions may differ.

How the values were obtained:
galectin-2 [1] = molecular target: galectin-2; design: method as in PMID 12223272; details: frontal affinity chromatography, read-out: binding affinity; cited from earlier work
galectin-2 [2] = molecular target: T1, galectin-2 (Homo sapiens, UniProt P05162); assay: TFS of galectin-2-ligand interaction; format: binding; details: for blue shift of maximum fluorescence peak: galectin-2; for maximum ligand binding-induced fluorescence intensity change: galectin-2, buffer titration subtracted; for Kd: galectin-2 20 µM, PBS, 25 °C, mean ± SEM
T1 construct: full length human galectin-2 (residues 1–132, UniProt code: P05162); 6xHis-SUMO (N, cleaved yes); made in house; host or cells: E. coli BL21(DE3)
T1 sequence (P05162 1-132): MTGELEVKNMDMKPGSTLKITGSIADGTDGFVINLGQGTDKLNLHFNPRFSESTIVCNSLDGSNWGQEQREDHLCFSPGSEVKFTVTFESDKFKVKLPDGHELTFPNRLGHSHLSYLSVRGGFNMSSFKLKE
Method: (§1) All tryptophan fluorescence spectroscopy experiments were performed using CARY Eclipse Fluorescence Spectrophotometer (Varian Inc. Santa Clara, California, USA) and a 3 ml quartz cuvette. […] The temperature was maintained constant at 25 °C by an external thermostatic water circulator. To measure galectin-ligand interactions, recombinant galectin-2 at 20 µM, galectin-3 at 10 µM and galectin-4, -4N and -4C at 5 µM were allowed to equilibrate in PBS for 10–30 minutes under constant stirring before being titrated with testing carbohydrate ligand solutions. […] Control buffer titrations to galectin solutions were performed in parallel for background determination in each experiment. Data from three independent experiments were analysed using nonlinear regression with ‘One Site- Specific Binding’ model (Y = Bmax * X/(KD + X) where X is the ligand concentration, Y is the fluorescence intensity, Bmax is the maximum specific binding and KD is the equilibrium binding constant) in GraphPad Prism 7.04.

galectin-4 [3] = molecular target: galectin-4; design: method as in PMID 15546874; details: SPR, read-out: binding affinity; cited from earlier work
galectin-4 [4] = molecular target: T2, galectin-4 (Homo sapiens, UniProt P56470); assay: TFS of galectin-4-ligand interaction; format: binding; details: for blue shift of maximum fluorescence peak: galectin-4; for maximum ligand binding-induced fluorescence intensity change: galectin-4, control buffer titration deducted; for Kd: full-length galectin-4 5 µM, PBS, 25 °C
T2 construct: 6xHis-SUMO (N, cleaved yes); made in house; host or cells: E. coli BL21(DE3)
T2 sequence (P56470 1-323): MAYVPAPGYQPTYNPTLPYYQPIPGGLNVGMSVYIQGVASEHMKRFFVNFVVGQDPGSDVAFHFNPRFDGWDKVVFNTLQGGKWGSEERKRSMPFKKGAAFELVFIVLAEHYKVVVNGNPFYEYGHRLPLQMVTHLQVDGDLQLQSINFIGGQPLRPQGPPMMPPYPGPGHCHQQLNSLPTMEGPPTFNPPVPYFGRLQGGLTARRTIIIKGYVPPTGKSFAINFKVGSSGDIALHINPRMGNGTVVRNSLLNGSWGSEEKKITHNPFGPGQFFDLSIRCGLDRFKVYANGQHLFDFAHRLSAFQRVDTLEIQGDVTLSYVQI
Method: as §1

galectin-3 [5] = molecular target: T3, galectin-3 (Homo sapiens, UniProt P17931); assay: Tryptophan fluorescence spectroscopy (TFS) of galectin-3-ligand interaction; format: binding; details: for maximum ligand binding-induced change of intrinsic fluorescence intensity: galectin-3, buffer control titration subtracted; for shift of fluorescence emission maximum to lower wavelength (blue shift): galectin-3, ligand titration; for Kd: galectin-3 10 µM, PBS, 25 °C, One site-Specific binding model
T3 construct: full-length human galectin-3 (residues 1–250, UniProt code: P17931); His-tag (N, cleaved yes); made in house; host or cells: E. coli BL21(DE3)
T3 sequence (P17931 whole entry, the tested form may be a part): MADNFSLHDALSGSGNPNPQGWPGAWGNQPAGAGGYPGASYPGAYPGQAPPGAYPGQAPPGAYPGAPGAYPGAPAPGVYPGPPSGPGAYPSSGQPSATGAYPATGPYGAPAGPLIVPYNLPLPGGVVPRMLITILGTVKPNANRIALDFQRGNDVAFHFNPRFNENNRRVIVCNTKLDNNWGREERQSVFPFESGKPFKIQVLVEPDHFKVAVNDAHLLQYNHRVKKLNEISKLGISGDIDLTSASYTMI
Method: as §1, with “circulator.” for “circulator. To measure galectin-ligand interactions, recombinant galectin-2 at 20 µM, galectin-3 at 10 µM and galectin-4, -4N and -4C at 5 µM were allowed to equilibrate in PBS for 10–30 minutes under constant stirring before being titrated with testing carbohydrate ligand solutions.”

galectin-2 [6] = molecular target: T1, galectin-2; assay: ITC of galectin-2-ligand interaction; format: binding; details: for binding by ITC (in words): 200 mM galactose
Method: (§2) ITC experiments were performed at 25 °C using a MicroCal iTC200 microcalorimeter (Malvern Analytical Ltd, Malvern, UK) with 200 µl cell capacity and 40 µl injection syringe volume. All galectins were used at 100 µM in PBS and the binding ligands were prepared in identical buffers. […] F3 was titrated into galectin-3 at concentration of 20 mM. Ligand-to-buffer and buffer-to-galectin titrations were performed as controls. Ligands were titrated in 19 injections of 2 µl aliquots with 120 s spacing between injections to allow baseline recovery. The ITC titration data were analysed using MicroCal Data Analysis for iTC200 which is an Origin 7.0-based software programme. A curve fit using the ‘One set of sites’ interaction model was used to determine the association constant (KA), stoichiometry of binding (N) and enthalpy change (∆H) for all the interactions of simple sugars with the galectins except F3, where a logistic fit was used due to the nature of F3 as a mixture of heterogeneous polysaccharides.

[7] = molecular target: T4, galectin-4N (residues 1–152) (Homo sapiens, UniProt P56470); assay: ITC of galectin-4N-ligand interaction; format: binding; details: galectin-4N 100 µM, 200 mM galactose
T4 construct: N-terminal galectin-4 (galectin-4N, residues 1–152); His-tag (pET47b, HRV3C-cleavable) (cleaved yes); made in house; host or cells: E. coli BL21(DE3)
T4 sequence (P56470 1-152): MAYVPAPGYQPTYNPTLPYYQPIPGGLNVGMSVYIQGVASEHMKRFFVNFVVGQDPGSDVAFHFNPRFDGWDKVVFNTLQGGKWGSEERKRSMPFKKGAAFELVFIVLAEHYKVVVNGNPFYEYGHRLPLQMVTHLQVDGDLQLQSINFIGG
Method: as §2

galectin-3 [8] = molecular target: T3, galectin-3; assay: Isothermal titration calorimetry (ITC) of galectin-3-ligand interaction; format: binding; details: for Kd: galectin-3 100 µM, PBS, 25 °C
Method: ITC experiments were performed at 25 °C using a MicroCal iTC200 microcalorimeter (Malvern Analytical Ltd, Malvern, UK) with 200 µl cell capacity and 40 µl injection syringe volume. […] Ligand-to-buffer and buffer-to-galectin titrations were performed as controls. Ligands were titrated in 19 injections of 2 µl aliquots with 120 s spacing between injections to allow baseline recovery. The ITC titration data were analysed using MicroCal Data Analysis for iTC200 which is an Origin 7.0-based software programme.

[9] = molecular target: T4, galectin-4N (residues 1–152); assay: TFS of galectin-4N-ligand interaction; format: binding; details: galectin-4N 5 µM, PBS, 25 °C
Method: as §1

[10] = molecular target: T5, galectin-4C (residues 153–323) (Homo sapiens, UniProt P56470); assay: ITC of galectin-4C-ligand interaction; format: binding; details: for binding by ITC (in words): galectin-4C 100 µM
T5 construct: His-tag (pET47b, HRV3C-cleavable) (cleaved yes); made in house; host or cells: E. coli BL21(DE3)
T5 sequence (P56470 153-323): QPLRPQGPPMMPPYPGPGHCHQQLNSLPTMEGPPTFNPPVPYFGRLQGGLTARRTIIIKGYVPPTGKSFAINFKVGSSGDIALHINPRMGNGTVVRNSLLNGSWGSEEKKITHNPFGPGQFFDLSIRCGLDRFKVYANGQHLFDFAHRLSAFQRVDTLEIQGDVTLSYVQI
Method: as §2

[11] = molecular target: T5, galectin-4C (residues 153–323); assay: TFS of galectin-4C-ligand interaction; format: binding; details: galectin-4C 5 µM, PBS, 25 °C
Method: as §1

galectin-4 [12] = molecular target: T2, galectin-4; assay: ITC of galectin-4-ligand interaction; format: binding; details: for binding by ITC (in words): galectin-4 100 µM, 200 mM galactose
Method: as §2

galectin-4C = tested on: galectin-4C; design: method as in PMID 15464951, PMID 26077389; details: fluorescence anisotropy, LacNAc vs lactose; cited from earlier work

Compound: α-lactose
- Kd (galectin-2 [1]): 1.1 mM
- blue shift of maximum fluorescence peak (galectin-2 [2]): 7 nm
- maximum ligand binding-induced fluorescence intensity change (galectin-2 [2]): 59 units
- Kd (galectin-4 [3]): 0.86 mM
- blue shift of maximum fluorescence peak (galectin-4 [4]): 10 nm
- maximum ligand binding-induced fluorescence intensity change (galectin-4 [4]): 49 units
- maximum ligand binding-induced change of intrinsic fluorescence intensity (galectin-3 [5]): 21 units
- shift of fluorescence emission maximum to lower wavelength (blue shift) (galectin-3 [5]): 9–10 nm

Compound: O=C[C@H](O)[C@@H](O)[C@@H](O)[C@H](O)CO [galactose, D-galactose]
- Kd (galectin-2 [6]): > 1 mM
- binding by ITC (in words) (galectin-2 [6]; ITC, galectin-2 100 µM): too weak to be determined
- binding by ITC (in words) (galectin-2 [6]; ITC, galectin-2 100 µM, listed as Galactose): too weak to be reliably determined
- binding by ITC (in words) [7]: very little, if any, binding taking place; also recorded: very too weak and mostly beyond detection
- Kd (galectin-3 [8]; One set of sites model (F3: logistic fit)): 3.1 ± 1.1 mM
- Kd (galectin-2 [2]; KD, n=3): 35.6 mM and 30 to 40 mM
- blue shift of maximum fluorescence peak (galectin-2 [2]): 6 nm
- maximum ligand binding-induced fluorescence intensity change (galectin-2 [2]): 57 units
- Kd [9]: 43.3 ± 5.2 mM
- binding by ITC (in words) [10]: very too weak and mostly beyond detection
- Kd ([10]; galectin-4C, Fig. 7G,I, read-out: KD (class symbol in figure)): > 1 mM
- Kd [11]: 33.8 ± 3 mM
- Kd (galectin-4 [4]; KD): 33.6 mM and 30 to 40 mM
- blue shift of maximum fluorescence peak (galectin-4 [4]): 4 nm
- maximum ligand binding-induced fluorescence intensity change (galectin-4 [4]): 80 units
- Kd (galectin-3 [5]): 4.7 mM and ~5 mM
- maximum ligand binding-induced change of intrinsic fluorescence intensity (galectin-3 [5]): 28 units
- shift of fluorescence emission maximum to lower wavelength (blue shift) (galectin-3 [5]): 9–10 nm
- binding by ITC (in words) (galectin-4 [12]): too weak to be determined
- binding by ITC (in words) (galectin-4 [12]; listed as Galactose): too weak to be reliably determined
- Kd (galectin-4 [12]; galectin-4, Fig. 5I, read-out: KD (class symbol in figure)): > 1 mM

Compound: CC(=O)N[C@H]1C(O)O[C@H](CO)[C@@H](O[C@@H]2O[C@H](CO)[C@H](O)[C@H](O)[C@H]2O)[C@@H]1O (stereo partly drawn) [LacNAc, N-Acetyl-D-lactosamine]
- Kd (galectin-2 [6]; ITC, galectin-2 100 µM, PBS, 25 °C, mean ± SEM, n=3, read-out: KD): 0.554 ± 0.108 mM
- fold stronger binding than lactose (galectin-2 [6]; ITC, galectin-2, LacNAc vs lactose): ~ 2 fold
- enthalpy ∆H of binding (galectin-3 [8]; galectin-3): -16.5 kcal/mol
- Kd (galectin-3 [8]; One set of sites model, mean ± SEM, n=3): 0.024 ± 0.0036 mM
- difference in enthalpy change to lactose (galectin-3 [8]; galectin-3, LacNAc vs lactose): 4.4 kcal/mol
- fold stronger binding than lactose (galectin-3 [8]; galectin-3, LacNAc vs lactose): ~ 4 fold
- difference in binding enthalpy to galactose (galectin-3 [8]; galectin-3, weakest ligand galactose to strongest ligand LacNAc): 6.1 kcal/mol
- blue shift of maximum fluorescence peak (galectin-2 [2]): 10 nm
- Kd (galectin-2 [2]; n=3, read-out: KD): 0.654 ± 0.155 mM
- maximum ligand binding-induced fluorescence intensity change (galectin-2 [2]): 52 units
- Kd [9]: 7.4 ± 0.9 mM
- binding by ITC (in words) [10]: very too weak and mostly beyond detection
- Kd [11]: 12.1 ± 0.7 mM
- fold weaker binding than lactose (galectin-4C): at least 11 fold
- Kd (galectin-4 [4]; read-out: KD): 9.3 ± 0.8 mM
- blue shift of maximum fluorescence peak (galectin-4 [4]): 5 nm
- maximum ligand binding-induced fluorescence intensity change (galectin-4 [4]): 50 units
- Kd (galectin-3 [5]; mean ± SEM, n=3): 0.0279 ± 0.0046 mM
- maximum ligand binding-induced change of intrinsic fluorescence intensity (galectin-3 [5]): 26 units
- shift of fluorescence emission maximum to lower wavelength (blue shift) (galectin-3 [5]): 9–10 nm
- Kd (galectin-4 [12]; full-length galectin-4 100 µM, PBS, 25 °C, read-out: KD): 3.5 ± 0.5 mM
